Reference: paper PMC4081560 (PLoS ONE, 2014)

System: tested viruses (K/09, rK09/NA:Y275, K/2785)
Assay type: cell-based, 2009 pandemic H1N1 virus
Conditions: read-out: concentration sufficient to restrict viral replication (EC50)

NC(=O)c1nc(F)cnc1O [Favipiravir, 6-fluoro-3-hydroxy-2-pyrazinecarboxamide]
EC50: 8.39 to 14.7 µM
